Results reported in patent EP3539977B1, “ENZYMES WITH CHLOROGENIC ACID ESTERASE ACTIVITY AND FERULOYL ESTERASE ACTIVITY” (SternEnzym GmbH & Co. KG, priority 2014, dated 2016).
Where “and” joins values, the source holds several entries; their conditions need not be identical. Identical values can stand only once.

Experiments:
UmChlE [1] = molecular target: T1, UmChlE (Mycosarcoma maydis, UniProt A0A060S684, P492L); assay type: biochemical, Ustilago maydis; conditions: buffer (Tris pH 7.5) / organic solvent 1:1 (v/v), 0.7 mM methyl ferulate, 1 h, 37 °C, 900 rpm; without solvent = 100 %; standard error in parentheses; ND = activity not detectable
T1 construct: purification of the chlorogenic acid esterase UmChlE from culture supernatant of U. maydis was accomplished by three complementary separation steps; made in house; host or cells: Ustilago maydis itself (native producer), culture supernatant; Q Sepharose FF, preparative IEF, polyamide column
T1 sequence (A0A060S684 22-585, stated change not applied): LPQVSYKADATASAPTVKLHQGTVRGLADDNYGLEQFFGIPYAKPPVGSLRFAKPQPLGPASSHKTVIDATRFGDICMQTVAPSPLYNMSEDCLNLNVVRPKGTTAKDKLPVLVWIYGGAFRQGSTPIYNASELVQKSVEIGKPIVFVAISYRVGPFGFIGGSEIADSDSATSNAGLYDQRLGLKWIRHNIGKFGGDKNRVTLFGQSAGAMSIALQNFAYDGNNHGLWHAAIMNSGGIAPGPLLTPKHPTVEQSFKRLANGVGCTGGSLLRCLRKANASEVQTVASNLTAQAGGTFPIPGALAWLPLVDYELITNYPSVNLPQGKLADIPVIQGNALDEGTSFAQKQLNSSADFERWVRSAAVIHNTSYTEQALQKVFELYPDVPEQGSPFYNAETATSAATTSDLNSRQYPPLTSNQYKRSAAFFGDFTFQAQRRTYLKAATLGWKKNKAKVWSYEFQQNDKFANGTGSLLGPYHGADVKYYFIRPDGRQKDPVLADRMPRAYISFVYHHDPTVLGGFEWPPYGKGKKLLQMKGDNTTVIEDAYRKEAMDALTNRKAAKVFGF
Procedure: Chlorogenic acid esterase activity was determined at 37 °C in 50 mM Tris buffer at pH 7.5 using chlorogenic acid and methyl ferulate as standard substrates, unless otherwise stated. The release of the corresponding free acids was analyzed with HPLC-UV. If appropriate, the hydrolysis of other benzoic and cinnamic acid ester derivatives as well as feruloylated saccharides was measured with the same method. After incubation for one hour the reaction was terminated by doubling the reacting volume with acetonitrile. Samples were centrifuged (15 min, 15.000 × g) before injection to the HPLC (Chromolith Performance RP-18e reverse-phase column, 100 × 4.6 mm, Merck, Darmstadt, Germany). […] Substance elution was detected at 232 nm (benzoic and 3-hydroxybenzoic acid), 254 nm (4-hydroxybenzoic and vanillic acid), 275 nm (cinnamic and gallic acid), 306 nm (p-coumaric acid) and 323 nm (ferulic, caffeic, chlorogenic and sinapic acid) using a Shimadzu UV-Vis detector (SPD-10A VP, Shimadzu Deutschland GmbH, Duisburg, Germany). One unit of enzyme activity was defined as the amount of enzyme releasing one µmοl of free acid per minute under the specified conditions. All measurements were performed at least twice. […]

UmChlE [2] = molecular target: T1, UmChlE; assay type: biochemical, Ustilago maydis; conditions: 1 mM (or 1.95 mM) substrate, 1 h, 37 °C, 50 mM Tris pH 7.5; ND = activity not detectable
Procedure: (§1) Chlorogenic acid esterase activity was determined at 37 °C in 50 mM Tris buffer at pH 7.5 using chlorogenic acid and methyl ferulate as standard substrates, unless otherwise stated. The release of the corresponding free acids was analyzed with HPLC-UV. If appropriate, the hydrolysis of other benzoic and cinnamic acid ester derivatives as well as feruloylated saccharides was measured with the same method. After incubation for one hour the reaction was terminated by doubling the reacting volume with acetonitrile. Samples were centrifuged (15 min, 15.000 × g) before injection to the HPLC (Chromolith Performance RP-18e reverse-phase column, 100 × 4.6 mm, Merck, Darmstadt, Germany). […] Substance elution was detected at 232 nm (benzoic and 3-hydroxybenzoic acid), 254 nm (4-hydroxybenzoic and vanillic acid), 275 nm (cinnamic and gallic acid), 306 nm (p-coumaric acid) and 323 nm (ferulic, caffeic, chlorogenic and sinapic acid) using a Shimadzu UV-Vis detector (SPD-10A VP, Shimadzu Deutschland GmbH, Duisburg, Germany). One unit of enzyme activity was defined as the amount of enzyme releasing one µmοl of free acid per minute under the specified conditions. All measurements were performed at least twice.
Substrate specificity of the UmChlE was determined towards different cinnamate and benzoate esters as well as natural substrates, such as F-A, F-AX and F-AXG, with activity assays as described above. Three mM stock solutions of all substrates were prepared in water.
Purified UmChlE was incubated with 1 mM, or, in a further experiment, 1.95 mM of different substrates for 1 h (at 37 °C, 50 mM Tris buffer pH 7.5). Relative enzyme activities were calculated based on the most preferred substance of the UmChIE: chlorogenic acid which was set to 100 %. Numbers in parentheses are the estimates of the standard error.

[3] = system: FAE of Penicillium expansum; conditions: literature (42); cited from earlier work
RsChlE = molecular target: T2, RsChlE (Rhizoctonia solani, UniProt A0A1D0BQV8); test: Substrate specificity of purified RsChlE; assay type: biochemical; conditions: 1 mM (or 1.95 mM) substrate, 1 h, 30 °C, 50 mM Bis-Tris pH 6.0
T2 sequence (A0A1D0BQV8 39-563): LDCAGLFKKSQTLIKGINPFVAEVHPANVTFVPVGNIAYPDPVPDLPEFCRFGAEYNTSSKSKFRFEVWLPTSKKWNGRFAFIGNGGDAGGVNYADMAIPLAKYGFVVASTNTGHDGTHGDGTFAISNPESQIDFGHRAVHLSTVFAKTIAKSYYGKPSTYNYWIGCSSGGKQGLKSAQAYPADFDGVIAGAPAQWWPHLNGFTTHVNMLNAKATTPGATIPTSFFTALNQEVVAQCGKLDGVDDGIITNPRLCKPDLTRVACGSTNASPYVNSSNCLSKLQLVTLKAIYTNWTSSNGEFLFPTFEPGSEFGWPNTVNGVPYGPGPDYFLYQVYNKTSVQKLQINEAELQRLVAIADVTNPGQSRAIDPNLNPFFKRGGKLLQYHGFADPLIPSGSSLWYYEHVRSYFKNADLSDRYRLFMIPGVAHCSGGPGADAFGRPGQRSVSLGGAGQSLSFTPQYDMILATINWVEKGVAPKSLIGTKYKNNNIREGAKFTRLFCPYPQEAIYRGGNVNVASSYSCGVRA
Procedure: as §1
(§2) After purification of the recombinant RsChlE from the culture supernatant of Pichia pastoris with Ni-NTA, the enzyme was biochemically characterized. The experiments were performed like for UmChlE. pH and temperature optimums were analyzed. […] Table 4: Substrate specificity of purified RsChIE.
Purified RsChlE was incubated with 1 mM, or in an alternative experiment, 1.95 mM of different substrates for 1 h (at 30 °C, 50 mM Bis-Tris buffer pH 6.0). […] Numbers in parentheses are the estimates of the standard error.

[4] = molecular target: T3, chlorogenic acid hydrolases from A. niger (Aspergillus niger, UniProt A7YN26); conditions: literature (13, 14); cited from earlier work
T3 sequence (A7YN26 19-512): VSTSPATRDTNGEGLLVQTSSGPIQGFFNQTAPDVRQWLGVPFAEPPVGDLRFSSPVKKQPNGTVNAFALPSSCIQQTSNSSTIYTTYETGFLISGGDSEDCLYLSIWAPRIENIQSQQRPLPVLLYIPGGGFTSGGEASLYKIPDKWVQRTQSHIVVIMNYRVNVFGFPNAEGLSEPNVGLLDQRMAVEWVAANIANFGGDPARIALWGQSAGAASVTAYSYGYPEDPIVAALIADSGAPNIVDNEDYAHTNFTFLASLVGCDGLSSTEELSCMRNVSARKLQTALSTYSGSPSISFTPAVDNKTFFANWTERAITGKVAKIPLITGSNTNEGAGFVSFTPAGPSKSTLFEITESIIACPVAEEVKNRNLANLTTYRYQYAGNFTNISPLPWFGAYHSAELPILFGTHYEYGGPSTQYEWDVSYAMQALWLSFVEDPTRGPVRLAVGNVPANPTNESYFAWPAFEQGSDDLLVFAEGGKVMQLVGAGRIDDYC

UmChlE [5] = molecular target: T1, UmChlE; test: Kinetic parameters of UmChlE from initial hydrolysis rates; assay type: biochemical, Ustilago maydis; conditions: 0.005 - 1 mM substrate, 60 min, 37 °C, pH 7.5
Procedure: (§3) Km and vmax values were calculated with non-linear regression using SigmaPlot 10.0 (Systat Software Inc., Chicago, USA). Blanks were carried out for all assays using water instead of enzyme. For calculation of kcat the molecular mass was determined using denaturing SDS-PAGE.
Kinetic properties were determined from initial hydrolysis rates for the most preferred substrates chlorogenic acid, MFA and MpCA. […] Consequently, the catalytic efficiency (kca/Km), a good indicator for enzyme efficiency and specificity, was better for chlorogenic acid than for the two synthetic substrates.

[6] = molecular target: T4, type B feruloyl esterase from N. crassa (Neurospora crassa, UniProt Q9HGR3); conditions: literature (35); cited from earlier work
T4 sequence (Q9HGR3 19-292): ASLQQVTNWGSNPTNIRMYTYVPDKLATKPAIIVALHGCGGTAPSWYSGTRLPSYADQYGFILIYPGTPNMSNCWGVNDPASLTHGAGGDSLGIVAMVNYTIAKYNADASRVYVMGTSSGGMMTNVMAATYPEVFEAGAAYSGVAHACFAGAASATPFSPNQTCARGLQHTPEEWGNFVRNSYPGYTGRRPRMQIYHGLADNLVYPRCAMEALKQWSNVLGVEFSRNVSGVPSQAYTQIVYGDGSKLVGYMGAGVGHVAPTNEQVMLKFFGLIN

AoFaeB from A. oryzae = molecular target: T5, AoFaeB from A. oryzae (Aspergillus oryzae, UniProt Q2UP89); conditions: literature (19); cited from earlier work
T5 sequence (Q2UP89 19-540): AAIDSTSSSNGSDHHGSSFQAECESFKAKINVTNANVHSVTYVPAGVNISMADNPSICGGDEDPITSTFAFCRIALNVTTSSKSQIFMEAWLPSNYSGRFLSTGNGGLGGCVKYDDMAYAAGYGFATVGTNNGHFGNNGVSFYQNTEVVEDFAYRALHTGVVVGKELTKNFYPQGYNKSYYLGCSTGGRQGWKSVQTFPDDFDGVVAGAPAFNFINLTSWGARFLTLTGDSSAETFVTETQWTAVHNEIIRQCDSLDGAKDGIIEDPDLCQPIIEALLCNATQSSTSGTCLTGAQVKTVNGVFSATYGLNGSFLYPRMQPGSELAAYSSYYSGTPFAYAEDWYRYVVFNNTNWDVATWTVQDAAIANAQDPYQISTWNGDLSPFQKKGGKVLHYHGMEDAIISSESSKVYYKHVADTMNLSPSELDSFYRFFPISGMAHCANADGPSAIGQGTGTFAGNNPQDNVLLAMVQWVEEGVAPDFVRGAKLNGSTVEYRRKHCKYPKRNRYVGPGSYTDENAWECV

A. niger FAEB = A. niger FAEB (Aspergillus niger, UniProt Q8WZI8); conditions: literature (34); cited from earlier work
Sequence of A. niger FAEB (Q8WZI8 18-521): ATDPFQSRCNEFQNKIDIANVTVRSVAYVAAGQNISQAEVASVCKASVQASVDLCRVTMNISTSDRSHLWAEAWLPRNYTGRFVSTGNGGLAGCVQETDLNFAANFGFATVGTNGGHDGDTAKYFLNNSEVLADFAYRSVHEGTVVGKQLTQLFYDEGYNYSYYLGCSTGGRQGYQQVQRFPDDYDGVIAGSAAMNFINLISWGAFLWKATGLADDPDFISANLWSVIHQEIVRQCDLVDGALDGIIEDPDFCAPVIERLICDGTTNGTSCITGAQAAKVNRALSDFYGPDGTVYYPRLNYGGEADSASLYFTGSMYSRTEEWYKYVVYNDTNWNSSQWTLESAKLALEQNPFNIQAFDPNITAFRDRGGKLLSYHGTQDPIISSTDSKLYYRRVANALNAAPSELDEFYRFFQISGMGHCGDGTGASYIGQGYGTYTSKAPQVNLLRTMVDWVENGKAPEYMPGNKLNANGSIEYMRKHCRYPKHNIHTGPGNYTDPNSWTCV

[7] = system: second published chlorogenic acid hydrolases from A. niger; conditions: literature (11); cited from earlier work
[8] = system: type B feruloyl esterases; conditions: literature; cited from earlier work
[9] = substrate: O=C(/C=C/c1ccc(O)c(O)c1)O[C@@H]1C[C@](O)(C(=O)O)C[C@@H](O)[C@H]1O; test: Kinetic analysis of RsChlE; assay type: biochemical, Rhizoctonia solani
Procedure: as §3, §2
(§4) In the following, the kinetic constants were determined to decide if the enzyme has mainly chlorogenic acid esterase or feruloyl esterase activity. Table 5: kinetic analysis of RsChlE

[10] = substrate: COc1cc(/C=C/C(=O)OC[C@@H]2OC(O)[C@H](O[C@@H]3OC[C@@H](O)[C@H](O)[C@H]3O)[C@H]2O)ccc1O; test: Kinetic analysis of RsChlE; assay type: biochemical, Rhizoctonia solani
Procedure: as §3, §2, §4

[11] = substrate: COC(=O)/C=C/c1ccc(O)c(O)c1; test: Kinetic analysis of RsChlE; assay type: biochemical, Rhizoctonia solani
Procedure: as §3, §2, §4

[12] = substrate: COC(=O)/C=C/c1ccc(O)cc1; test: purified protein, by the assay type

## CN(C)C=O [DMF]
UmChlE [1]
  Relative esterase activity: 1 (0.76) %

## COc1cc(/C=C/C(=O)OC[C@@H]2OC(O)[C@H](O[C@@H]3OC[C@@H](O)[C@H](O)[C@H]3O)[C@H]2O)ccc1O (stereo partly drawn) [F-AX, β-D-xylopyranosyl-(1→2)-5-O-trans-feruloyl-L-arabinofuranose]
UmChlE [2]
  Specific esterase activity: 1.6 U mg^-1 and 1.63 U mg^-1
[3]
  specific activities: 5.3 U mg^-1
RsChlE
  Specific activity: 4.97 U/mg

## O=C(/C=C/c1ccc(O)c(O)c1)O[C@@H]1C[C@](O)(C(=O)O)C[C@@H](O)[C@H]1O [chlorogenic acid]
UmChlE [2]
  Specific esterase activity: 2.8 U mg^-1 and 2.76 U mg^-1
[4]
  Km: 6.5 to 10 µM
UmChlE [5]
  kcat: 0.51 s⁻¹
[6]
  Km: 180 µM
AoFaeB from A. oryzae
  Km: 630 µM
A. niger FAEB
  Km: 245 µM
RsChlE
  Specific activity: 5.15 U/mg
[7]
  Km: 700 µM

## COC(=O)/C=C/c1ccc(O)c(OC)c1 [methyl ferulate]
UmChlE [2]
  Specific esterase activity: 1.27 U mg^-1
[3]
  specific activities: 14.4 U mg^-1
UmChlE [5]
  kcat: 0.38 s⁻¹
RsChlE
  Specific activity: 3.19 U/mg

## COC(=O)/C=C/c1ccc(O)cc1 [methyl p-coumarate]
UmChlE [2]
  Specific esterase activity: 1.43 U mg^-1
UmChlE [5]
  kcat: 0.49 s⁻¹
[8]
  Km: 20 µM
RsChlE
  Specific activity: 6.19 U/mg

B1: RsChlE (Rhizoctonia solani) (protein)
chain: MGCDRPRQALHSLQEFTVMFSKWLPISAILLYGASAKALDCAGLFKKSQTLIKGINPFVAEVHPANVTFVPVGNIAYPDPVPDLPEFCRFGAEYNTSSKSKFRFEVWLPTSKKWNGRFAFIGNGGDAGGVNYADMAIPLAKYGFVVASTNTGHDGTHGDGTFAISNPESQIDFGHRAVHLSTVFAKTIAKSYYGKPSTYNYWIGCSSGGKQGLKSAQAYPADFDGVIAGAPAQWWPHLNGFTTHVNMLNAKATTPGATIPTSFFTALNQEVVAQCGKLDGVDDGIITNPRLCKPDLTRVACGSTNASPYVNSSNCLSKLQLVTLKAIYTNWTSSNGEFLFPTFEPGSEFGWPNTVNGVPYGPGPDYFLYQVYNKTSVQKLQINEAELQRLVAIADVTNPGQSRAIDPNLNPFFKRGGKLLQYHGFADPLIPSGSSLWYYEHVRSYFKNADLSDRYRLFMIPGVAHCSGGPGADAFGRPGQRSVSLGGAGQSLSFTPQYDMILATINWVEKGVAPKSLIGTKYKNNNIREGAKFTRLFCPYPQEAIYRGGNVNVASSYSCGVRA
[9]
  Km: 18,3 µM
  Vmax: 23,4 U/mg
  kcat: 29,25 s^-1
[10]
  Km: 38,4 µM
  Vmax: 23,3 U/mg
  kcat: 29,13 s^-1
[11]
  Km: 28,5 µM
  Vmax: 16 U/mg
  kcat: 20,00 s^-1
[12]
  Km: 35,8 µM
  Vmax: 26,5 U/mg
  kcat: 33,13 s^-1
  kcat/Km: 925,28 mM * s^-1
